Laboratory results taken from patent publication US20230277553A1, “THERAPEUTIC COMPOSITION OF CURE-PRO COMPOUNDS FOR TARGETED DEGRADATION OF BET DOMAIN PROTEINS, AND METHODS OF MAKING AND USAGE” (CORNELL UNIVERSITY, priority 2020, published 2023).
“Also recorded” adds a separate entry of the source.

What was measured:
Format in all cases: cell-based
Namalwa cells = assay: CellTiter-Glo cell viability, Namalwa cells; settings: 72 hours, 1:1 with 8047, 10 nM-10 μM each
Procedure: CellTiter-Glo® 2.0 Cell Viability Assay (Promega) was carried out following the manufacturer's recommendations. Cells were seeded at a density of 1000 cells/well in a white 96 well plates (Corning, #3917) in a total volume of 100 μl with respective monomers, combinations of BRD ligands together with E3 ligase ligands or vehicle control treatment. After a 72 h incubation, 100 ul of the CellTiter-Glo® substrate was added per well and luminescence was read on a Spectramax M5 (Molecular Devices). Dose-response curves were generated using Graphpad Prism software.
Namalwa cells (1×104) were treated for 72 hours with the compounds solubilized in DMSO. Compounds were added at 10 nM-10 μM each. Cellular viability was determined using the CellTiter-Glo® Luminescent Cell Viability Assay (Promega) described above. FIG. 56 depicts the CURE-PRO-mediated loss of cellular viability for the BRD-E72 monomer (JQ1 derivatives comprising of boronic acid linkers), and the CRBN ligand, 8047 (a pomalidomide derivative comprising diol linkers) combined in a 1:1 ratio.

BRD4 [1] = biological target: T1, BRD4 (Homo sapiens, UniProt O60885); assay: CURE-PRO-mediated BRD4 degradation, WES (ProteinSimple), HeLa cells; set-up: endogenous in cells; host or cells: HeLa; settings: 10 μM each, 4-24 h with washout after 4 h, or 100 nM-10 μM
Procedure: All cell lines were purchased from ATCC or DSMZ and grown at 37° C. with 5% CO2. Human HeLa cells were cultured in complete growth medium (Dulbecco's modified Eagle's medium (DMEM) supplemented with 10% FBS); MCF7 cells were cultured in complete growth medium (Dulbecco's modified Eagle's medium (DMEM) supplemented with 10% FBS and 0.01 mg/ml human recombinant insulin (Sigma Aldrich); Namalwa and MOLM-13 cells were cultured in complete growth medium (RPMI 1640 medium supplemented with 10% FBS); MV-4-11 were cultured in complete growth medium (Iscove's Modified Dulbecco's medium, supplemented with 10% FBS); HCT116 cells were cultured in complete growth medium (McCoy's 5a Medium supplemented with 10% FBS). For cellular degradation of BRD4 studies, cells were seeded in a 12-well plate at 70-80% confluency, allowed to attach overnight, and incubated with the indicated compounds for the indicated time. When indicated, a 15-minute pretreatment with 10 μM pomalidomide, 10 μM VHL298, 10 μM Nutlin3a, 1 μM MG-132 or 1 μM Carfilzomib was performed before the addition of CURE-PROs. For washout studies, after CURE-PRO treatment, media was aspirated and incubated with complete medium for the indicated time before lysis.
Anti-BRD4 (13440, 1:1,000 dilution for Western Blot and 1:25 dilution for ProteinSimple); Anti-BRD2 (5848 1:1,000 dilution for Western Blot and 1:25 dilution for ProteinSimple); β-Actin (3700, 1:2,000 dilution for Western Blot), β-Actin (4970, 1:50 dilution for ProteinSimple) anti-mouse IgG-HRP, and anti-rabbit IgG-HRP antibodies were purchased Cell Signaling Technology. Anti-GAPDH (600-401-A33, 1:100 dilution for ProteinSimple) was purchased from Rockland Immunochemicals, Inc. Anti-BRD3 (sc-81202, 1:200 dilution for Western Blot) was purchased from Santa Cruz Biotechnology.
WES Simple analysis was performed on WES system (ProteinSimple-Biotechne) according to the manufacturer's instructions. Total protein concentrations of cell lysates were determined by the Pierce BCA kit (Thermo Fisher). 3 μL of 0.3 μg/μL of the protein lysate was loaded onto a 12- to 230-kDa WES assay plate (ProteinSimple) where 300 nL sample was withdrawn through a capillary, subjected to electrophoretic separation of proteins by size, and followed by the simultaneous, HRP-based detection of proteins using the Anti-Rabbit Detection Module (Proteinsimple: #DM-001). The electropherograms were checked then the automatic peak detection was manually corrected if it was required.
HeLa cells (2.5×10^6) were treated for 4-24 hours with the compounds solubilized in DMSO. After 4 hours, indicated points were washed and cells were left in full growth media. Compounds were added at 10 μM each. […]

BRD4 [2] = biological target: T1, BRD4; assay: Summary of BRD4 degradation by CURE-PRO pairs, estimated from Western Blot or WES (Proteinsimple); set-up: endogenous in cells; settings: Table 1; CRBN ligand, second drawing (8047)
Source text: A black check mark indicates efficacy of 30% to 70% or higher protein degradation.

caspase 3/7 = assay: Caspase-Glo 3/7 assay, Namalwa cells; settings: 24 hours, 1:1 with 8047
Procedure: Caspase-glo® assay (Promega) was conducted following the manufacturer's recommendations. Cells were seeded at a density of 5000 cells/well in a white 96 well plates (Corning, #3917) in a total volume of 100 μl with respective monomers, combinations of BRD ligands together with E3 ligase ligands or vehicle control treatment. After a 24 h incubation, 100 μl of the […] substrate was added per well and luminescence was read on a Spectramax M5 (Molecular Devices).
Namalwa cells (5×104) were treated for 24 hours with the compounds solubilized in DMSO. FIG. 57 is a bar graph depiction of fold increase of apoptosis assessed via caspase 3/7 activity using the Caspase-glo assay (Promega) described above.
Molm-13 (FIG. 76A) or Namalwa (FIG. 76B) cells (5×10^4) were treated for 24 hours with the compounds solubilized in DMSO in white 96 well plates (10 nM-10 μM solubilized in DMSO). FIG. 76 is a bar graph depiction of fold increase of apoptosis assessed via caspase 3/7 activity using the Caspase-glo assay (Promega) described above.

BRD4 [3] = biological target: T1, BRD4; assay: CURE-PRO-mediated BRD4 degradation, Western blot, HeLa cells; set-up: endogenous in cells; host or cells: HeLa; settings: 24 h
Outline: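 HeLa cells treated 24 h with compounds in DMSO (1-10 μM, 10 μM or 100 μM each; paired monomers combined 1:1), optional 15-min pretreatment with pomalidomide, VHL298, Nutlin3a (10 μM) or MG-132/carfilzomib (1 μM). RIPA lysates, 10-20 μg protein immunoblotted for BRD4 with β-actin, ECL detection.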

Question: Which results are given for CCNC(=O)C[C@@H]1N=C(c2ccc(Cl)cc2)c2cc(-c3cccc(B(O)O)c3)ccc2-n2c(C)nnc21 [BRD-E72, (3-((4S)-6-(4-chlorophenyl)-4-(2-(ethylamino)-2-oxoethyl)-1-methyl-4H-benzo[f][1,2,4]triazolo[4,3-a][1,4]diazepin-8-yl)phenyl)boronic acid]?
Answer: Loss of cell viability, co-dosed with CRBN ligand 8047 (Namalwa cells): increase in the loss of viability compared to monomer treatment alone; also recorded: marked loss in cell viability; BRD4 degradation, co-dosing with CRBN ligand 8047 (WES) (BRD4 [1]): marked BRD4 degradation after 4h with sustained degradation for up to 8h after drugs are washed out; Degradation of BRD4 in combination with CRBN ligand [drawing 371] (BRD4 [2]): ✓ (A black check mark indicates efficacy of 30% to 70% or higher protein degradation); Caspase 3/7 activation, co-dosed with CRBN ligand 8047 (caspase 3/7): demonstrates activation of caspase 3/7; also recorded: marked caspase activation; BRD4 degradation, BRD ligand with pomalidomide (no 8047) (BRD4 [3]; 10 μM): failed to induce BRD4 degradation; BRD4 degradation, BRD ligand alone (BRD4 [3]; BRD monomer alone, Western blot): no change in expression
